In patent publication US10173999B2, “Cyclic amine derivative and pharmaceutical use thereof” (Toray Industries, Inc., priority 2015, dated 2019):
Where a name gives a salt, the structure may show the parent alone.

Tests used:
[1] = system: mouse partial sciatic nerve ligation model (neuropathic pain); experiment: Mouse partial sciatic nerve ligation model (Seltzer model), von Frey test; type: in vivo; details: for dose from which a statistically significant analgesic action started / persistence of analgesic action / time of strongest analgesic action after oral administration: oral administration; for dose from which a statistically significant analgesic action started: von Frey test; for persistence of analgesic action / time of strongest analgesic action after oral administration: von Frey test at 1, 2, 3 h
Procedure: The mouse partial sciatic nerve ligation model was prepared in accordance with the method of Seltzer et al. (Malmberg et al., Pain, vol. 76, p. 215-222, 1998).
Slc: ICR mice (5 weeks old, male; from Japan SLC, Inc.) or Cr1: CD1 (ICR) mice (5 weeks old, male; from CHARLES RIVER LABORATORIES JAPAN, INC.) were anesthetized with sodium pentobarbital (70 mg/kg, intraperitoneal administration). The sciatic nerve at the femoral region of the right hind paw of each mouse was exposed and triply ligated tightly with silk suture of 8-0 (from NATSUME SEISAKUSHO CO., LTD.) under a stereomicroscope so that only half thickness of the nerve was trapped in the ligature. A group of mice thus treated was designated as a partial sciatic nerve ligation group. A group of mice whose sciatic nerve was just exposed and not ligated was designated as a sham surgery group.
Evaluation of neuropathic pain (hereinafter referred to as von Frey test) was performed as follows. Mice were conditioned for at least one hour in an acrylic cage for measurement (from NATSUME SEISAKUSHO CO. LTD. or SHINANO SEISAKUSHO) placed on a wire net. Thereafter, using a filament (from North Coast Medical or neuroscience) which exerted a pressure of 0.16 g, the mice were subjected to mechanical tactile stimulus by applying the filament to the plantar surface of the right hind paw 3 times, each for 3 seconds, with an interval of 3 seconds.
Seven days after the sciatic nerve ligation surgery, the compound of Example 1, 2, 3, 4, 5, 7, 8, 9, 10, 11, 12 or 13 (10 mg/kg for each of the compounds of Example 1, 2, 3, 4, 5, 8, 10 and 13, 0.01 to 1 mg/kg for the compound of Example 7, 0.01 to 10 mg/kg for the compound of Example 9; 0.001 to 0.1 mg/kg for the compound of Example 11; and 0.01 to 1 mg/kg for the compound of Example 12) or pregabalin as a positive control (10 mg/kg; Bosche Scientific) was dissolved in distilled water and orally administered to mice of the partial sciatic nerve ligation group. The groups of the mice in the partial sciatic nerve ligation mouse to which the compound of Example 1, 2, 3, 4, 5, 7, 8, 9, 10, 11, 12 or 13 was administered were designated as a “partial sciatic nerve ligation+the compound of Example 1” group; a “partial sciatic nerve ligation+the compound of Example 2” group; a “partial sciatic nerve ligation+the compound of Example 3” group; a “partial sciatic nerve ligation+the compound of Example 4” group; a “partial sciatic nerve ligation+the compound of Example 5” group; a “partial sciatic nerve ligation+the compound of Example 7” group; a “partial sciatic nerve ligation+the compound of Example 8” group; a “partial sciatic nerve ligation+the compound of Example 9” group; a “partial sciatic nerve ligation+the compound of Example 10” group; a “partial sciatic nerve ligation+the compound of Example 11” group; a “partial sciatic nerve ligation+the compound of Example 12” group; and a “partial sciatic nerve ligation+the compound of Example 13” group, respectively. The partial sciatic nerve ligation mouse group to which pregabalin was administered was designated as a “partial sciatic nerve ligation+pregabalin” group. A group wherein distilled water was orally administered to the mice of the partial sciatic nerve ligation group was designated as a “partial sciatic nerve ligation+distilled water” group. A group wherein distilled water was orally administered to the mice of the sham surgery group was designated as a “sham surgery+distilled water” group.
The von Frey test was carried out before oral administration of a test compound (pre-value), one hour, two hours, and three hours after the oral administration of a test compound.
Slc: ICR mice (5 weeks old, male; Japan SLC, Inc.) were anesthetized with sodium pentobarbital (70 mg/kg, intraperitoneal administration).

[2] = system: Canine aortic smooth muscle cells; experiment: Inducibility of cytoplasmic vacuolation in canine aortic smooth muscle cells; type: cell-based; design: key: Present: The term “present” in the tables means that cytoplasmic vacuolation was observed; Absent: the term “absent” means that cytoplasmic vacuolation was not observed; details: Concentration: 1.0 mmol/L, Treatment time: 24 hours
Procedure: As a test compound, the compound of Example 3, 9, 11, 12 or compounds of Comparative Examples 2 to 6 were used. Canine aortic smooth muscle cells (Canine Aortic Smooth Muscle Cells, supply source: Toyobo Co., Ltd.) or human aortic smooth muscle cells of (T/G HA-VSMG, supply source: ATCC) were treated with a test compound (1.0 or 1.2 mmol/L in concentration) for 24 hours or 2 weeks. The cells were stained with HE, immunohistochemically for LAMP-2 or toluidine blue, and thereafter the presence or absence of cytoplasmic vacuolation was determined by using an optical microscope.

Structure (SMILES) | dose from which a statistically significant analgesic action started [1] | persistence of analgesic action [1] | time of strongest analgesic action after oral administration [1] | Inducibility of cytoplasmic vacuolation [2] | time the analgesic action lasted after oral administration ([1]; dose of 0.1 mg/kg) | time the analgesic action lasted after oral administration ([1]; from a dose of 0.001 mg/kg) | analgesic action in von Frey test (total score) ([1]; mouse, in vivo)
CN(C)C1CCN(C(=O)CCc2nccn2C)CC1 [Comparative Example 1, 1-(4-(dimethylamino)piperidin-1-yl)-3-(1-methyl-1H-imidazol-2-yl)propan-1-one hydrochloride] | 10 µg/kg | tended to decrease 2 hours and 3 hours later | one |  |  |  | 
CC(C)n1ccnc1CCC(=O)N1CCC(N(C)C)CC1 [Comparative Example 6, 1-(4-(dimethylamino)piperidin-1-yl)-3-(1-isopropyl-1H-imidazol-2-yl)propan-1-one hydrochloride] |  | tended to decrease 2 hours and 3 hours later | one | Present |  |  | 
CN(C)C1CCN(C(=O)C[C@H](O)c2nccn2C)CC1 [Example 11, (S)-1-(4-(dimethylamino)piperidin-1-yl)-3-hydroxy-3-(1-methyl-1H-imidazol-2-yl)propan-1-one] | 1 µg/kg |  |  | Absent | 3 h | 2 h | statistically significant analgesic action
